Tested on: Trichoderma reesei X3AB1 strain
Assay: Test 1/Test 2: amount of protein produced (Bradford method) in culture supernatant
Type: cell-based
Protocol: Trichoderma reesei X3AB1 strain (J. Ind. Microbiol. Biotechnol., 2012, 174: 1-9; hereinafter, referred to as X3AB1 strain) was cultured in a cellulose-containing culture medium to produce a protein containing a cellulase. As preculture, 50 mL of a culture medium was added to a 500 mL flask, spores of X3AB1 strain were inoculated at 1×10^5 cells/mL, and shaking culture was performed at 220 rpm (PRXYg-98R from PRECI CO., LTD.) at 28° C. The culture medium composition was as follows: 1% glucose, 0.14% (NH4)2SO4, 0.2% KH2PO4, 0.03% CaCl2·2H2O, 0.03% MgSO4·7H2O, 0.1% Bacto Peptone (BD Difco), 0.05% Bacto Yeast extract (BD Difco), 0.1% TWEEN® 80 (polysorbate 80), 0.1% Trace element and 50 mM tartrate buffer (pH 4.0). The composition of the Trace element was as follows: 6 mg of H3BO3, 26 mg of (NH4)6Mo7O24·4H2O, 100 mg of FeCl3·6H2O, 40 mg of CuSO4·5H2O, 8 mg of MnCl2·4H2O and 200 mg of ZnCl2 which were diluted to 100 mL with distilled water.
Main culture was performed after 2 days of preculture. […]
The culture solutions obtained in Comparative Example 1 and Examples 1 and 2 were centrifuged. […] The concentration of protein in the supernatant was measured by the Bradford method. The protein concentration of the supernatant was calculated on the basis of a calibration curve with bovine γ-globulin as standard protein using Quick Start Protein Assay (BioRad) based on the Bradford method, and the protein concentration was defined as an amount of protein produced. […]
For the culture solutions obtained from Comparative Examples 2 and 3 and Examples 3 to 6, the amount of protein produced was measured in the same manner as in Test 1. […]

## N[C@@H]1O[C@H](CO)[C@@H](O)[C@H](O)[C@H]1O [β-D-glucopyranosylamine]
Example 1: 0.5% added to initial culture medium of main culture, maximum on day 3 of culture, 10% powder cellulose medium
  increase of maximum amount of protein produced as compared to Comparative Example 1: ≥ 20%
Example 2: 8% aqueous solution fed 0.6 g/L initial culture medium/hr at 15-63 hr (total 0.2%), maximum on day 4 of culture
  increase of maximum amount of protein produced as compared to Comparative Example 1: ≥ 20%
Examples 3 to 6: fed together with glucose (38% glucose/2% or 35% glucose/5% aqueous solution) versus 40% glucose feed (Comparative Examples 2 and 3)
  protein productivity as the amount added in the culture increased: tended to be improved
